How the values were obtained:
Type in all cases: cell-based, Marinobacter aquaeoli VT8
AlkR protein [1] = assay: Alkane induction assay: mRFP reporter in E. coli JM109 carrying psb4K5-alkR-mRFP plasmid (flow cytometry)
Method: (§1) E. coli JM109 carrying the psb4K5-alkR-mRFP plasmid was cultured overnight at 37° C. and 125-150 rpm in 3 mL of LB medium containing 50 μg/mL kanamycin. The overnight culture was diluted 1000-fold in LB medium in a 100 mL Hinton's flask and cultured at 37° C. To induce the expression of red fluorescent protein, 1% (v/v) of the various indicated hydrocarbons was added to the culture when the absorbance at 600 nm (O.D.600) reached about 0.6. At 0, 3, 6, 9, and 12 hours after the induction, 500 μL of the abovementioned bacterial culture was collected and centrifuged to obtain a cell pellet, which was washed twice and resuspended with phosphate buffer saline (PBS). Flow cytometry (BD FACSCanto II) was used to measure the mean fluorescence intensity of the cells and the distribution of cells with different fluorescence intensities (an excitation wavelength at 532 nm and an emission wavelength at 588 nm). For the E. coli JM109 that additionally carrying an expression vector of an alkane transporter, rhamnose was first added to the bacterial culture at an O.D.600 of about 0.6, and 1% (v/v) of the various indicated hydrocarbons was added three hours thereafter.
First, E. coli JM109 was transformed with the psb4K5-alkR-mRFP plasmid shown in FIG. 1, which was a reporter plasmid including the alkR gene, the gene encoding the red fluorescent protein, and the promoter thereof. […] At 0, 3, 6, 9, and 12 hours after the induction, the mean fluorescence intensity and fluorescence distribution of E. coli cells were measured by flow cytometry. […]
It was also studied whether the medium-chain or long-chain alkane terminal oxidation products would inhibit the activating effect of the AlkR protein on gene expression. In the alkane induction assay using n-dodecane as the inducer, 0.1% (v/v) or 1% (v/v) 1-dodecanol was additionally added to the E. coli culture, and the mean fluorescence intensity of the E. coli cells was measured at 6 and 12 hours after the induction, with the results shown in FIG. 10.

AlkR protein [2] = assay: Alkane induction assay in E. coli JM109 carrying psb4K5-alkR-mRFP and rhamnose-inducible psb3C5-rha-weak alkL (or mock psb3C5-rha) plasmid; conditions: for expression of red fluorescent protein (mean fluorescence intensity) compared to no rhamnose addition: AlkL plasmid, 0.01% (w/v) rhamnose then 1% (v/v) n-tetradecane, 6 h after induction, FIG. 14
Method: as §1
This characteristic might prevent the recombinant microorganism including the CYP153A operon from being induced by the medium-chain or long-chain alkanes or medium-chain or long-chain fatty acid methyl esters and producing the medium-chain or long-chain alkane terminal oxidation products. In order to promote the entry of medium-chain or long-chain alkanes into cells, the recombinant microorganism of the present invention may further express an alkane transporter. The AlkL protein of P. putida GPol is an exemplary alkane transporter used in this example to investigate the effects of alkane transporter expression on the uptake of medium-chain or long-chain alkanes or medium-chain or long-chain fatty acid methyl esters by the recombinant microorganisms. The AlkL protein is cytotoxic and its expression should be tightly regulated. […] At 6 hours after the induction, the mean fluorescence intensity of E. coli cells was measured by flow cytometry.
The AlkL protein was also tested for the ability to promote the uptake of various medium-chain or long-chain alkanes and methyl laurate by microbial cells. […] After 3 hours of incubation, 1% (v/v) n-octane, n-decane, n-dodecane, n-tetradecane, n-hexadecane, n-octadecane, or methyl laurate was added to induce the expression of red fluorescent protein, and the mean fluorescence intensity and fluorescence distribution of E. coli cells were measured by flow cytometry 6 hours after the induction. […]

CYP153A operon [3] = assay: CYP153A expression in recombinant E. coli carrying pBBR1-CYPLR plasmid (SDS-PAGE, CO difference spectroscopy); conditions: 1% (v/v) methyl laurate, pBBR1-CYPLR vs pBBR1-alkR plasmid
Method: E. coli JM109 carrying the pBBR1-CYPLR plasmid or the pBBR1-alkR plasmid was overnight cultured at 37° C. and 125-150 rpm in 3 mL of LB medium containing 50 μg/mL kanamycin. The overnight culture was diluted 1000-fold in 3 mL of LB medium containing 50 μg/mL kanamycin and cultured at 37° C. 1% (v/v) methyl laurate was added to the culture at an O.D.600 of about 0.6 and a further incubation at 30° C. was carried out for 12 hours. The cell pellet obtained by centrifuging the abovementioned bacterial culture was washed and resuspended with PBS, and then subjected to protein expression analysis by sodium dodecyl sulfate polyacrylamide gel electrophoresis (SDS-PAGE) or carbon monoxide (CO) difference spectroscopy.
Samples of bacterial cells were mixed with sample buffer (50 mM Tris-HCl, pH 6.8, 100 mM dithiothreitol (DTT), 2% SDS, 0.1% bromophenol blue, 10% glycerol) and boiled for 10 minutes. […]
It was studied whether CYP153A expression in the recombinant E. coli carrying the reconstructed CYP153A operon from M. aquaeoli VT8 would be induced by medium-chain or long-chain fatty acid methyl esters. […] At 12 hours after the induction, the expression of CYP153A was analyzed by SDS-PAGE, and the protein molecular size and activity of the cytochrome P450 consisting of CYP153A, ferredoxin, and ferredoxin reductase were verified by carbon monoxide difference spectroscopy.

CYP153A operon [4] = assay: n-Octane-induced 1-octanol production by recombinant E. coli carrying pBBR1-CYPLR plasmid (gas chromatography); conditions: 1% (v/v) n-octane; 12 h after induction; pBBR1-CYPLR vs pBBR1-alkR plasmid; FIG. 13
Method: The medium-chain or long-chain alkane terminal oxidation product in the sample was analyzed qualitatively and quantitatively by gas chromatography. The analysis of alkanols and alkanediols was described as follows, with 1-octanol taken as example. 10 mg of 1,8-octanediol was added as an internal standard to 10 mL of the collected bacterial culture, and the mixture was extracted twice with double volumes of ethyl acetate. […] The obtained product was analyzed for composition by Varian CP-3800 gas chromatograph equipped with a DB-5 column and a flame ionization detector (FID). […] Alkanoic acids, alkanedioic acids, or alcohol acids were analyzed similarly as described above. In one embodiment of the present invention, 12-hydroxydodecanoic acid was analyzed using dodecanol as the internal standard.
It was studied whether the recombinant E. coli carrying the reconstructed CYP153A operon from M. aquaeoli VT8 would be induced to express the cytochrome P450 with oxidative activity and produce medium-chain or long-chain alkane terminal oxidation products in response to medium-chain or long-chain alkanes. […] At 12 hours after the induction, the production of 1-octanol in the bacterial culture was analyzed by gas chromatography.

CCCCCCCCCCCCO [1-dodecanol]
inhibition of n-dodecane-induced red fluorescent protein expression (AlkR protein [1]; 0.1% or 1% (v/v) 1-dodecanol added with 1% n-dodecane inducer, 6 and 12 h, FIG. 10): did not inhibit the expression of red fluorescent protein

CCCCCCCCCCCC(=O)OC [methyl laurate]
expression of red fluorescent protein (mean fluorescence intensity) relative to control group (AlkR protein [1]; 1% (v/v) inducer, 0-12 h, recombinant E. coli JM109, vs untreated control, FIG. 8): induced the expression of red fluorescent protein
expression of red fluorescent protein in control groups (mock vector) vs non-induced groups (AlkR protein [2]; psb3C5-rha mock vector, 0.01% rhamnose 3 h then 1% (v/v) inducer 6 h, FIG. 15): induce significantly more expression of the red fluorescent protein
whole-cell carbon monoxide difference spectrum (400-500 nm) (CYP153A operon [3]; 12 h, FIGS. 12A-12B): absorption peak at about 450 nm
CYP153A expression by SDS-PAGE (CYP153A operon [3]; 12 h after induction, FIG. 11): expressed the CYP153A

CCCCCCCC [n-octane]
induction of cytochrome P450 with oxidative activity (1-octanol production, gas chromatogram) (CYP153A operon [4]): additional peak at the retention time of 1-octanol
number of E. coli cells induced to express red fluorescent protein (fluorescence distribution histograms) (AlkR protein [1]; 1% (v/v) alkane, 0 vs 6 h after induction, FIGS. 9A-9F): more E. coli cells were induced to express the red fluorescent protein

CCCCCCCCCCCCCC [n-tetradecane]
expression of red fluorescent protein (mean fluorescence intensity) compared to no rhamnose addition (AlkR protein [2]): induced significantly more expression of the red fluorescent protein
expression of red fluorescent protein in E. coli cells expressing both AlkL and AlkR proteins vs control groups (AlkR protein [2]; psb3C5-rha-weak alkL plasmid, 0.01% rhamnose 3 h then 1% (v/v) alkane 6 h, FIG. 15): more effective in inducing the expression of red fluorescent protein

C[C@H](O)[C@H](O)[C@@H](O)[C@@H](O)C=O [rhamnose, reference compound]
expression of red fluorescent protein (mean fluorescence intensity) compared to no rhamnose addition (AlkR protein [2]): induced significantly more expression of the red fluorescent protein
